Reference: ChEMBL document CHEMBL5344429, “1,3-Substituted β-Carboline Derivatives as Potent Chemotherapy for the Treatment of Cystic Echinococcosis” (J Med Chem, 2023)

Assays:
Echinococcus granulosus [1] = experiment: Inhibition of Echinococcus granulosus; assay type: functional
Echinococcus granulosus [2] = experiment: Antiparasitic acitivity against Echinococcus granulosus infected at 25 mg/kg; assay type: functional

## CCCCn1c2ccccc2c2ccnc(-c3ccccc3Cl)c21
Echinococcus granulosus [1]
  LC50: 41.6 µM
Echinococcus granulosus [2]
  Activity: 32.91%
